Test results reported in patent publication US11186576B2, “Pyrazolo[1,5-A][1,3,5]triazine and pyrazolo[1,5-A]pyrimidine derivatives as CDK inhibitors” (Aurigene Discovery Technologies Limited, priority 2015, dated 2021).

Key:
[1] = target: CDK7/CycH/MNAT1 (Homo sapiens (Human), UniProt P50613); test: Biochemical assay for CDK7 (TR-FRET kinase assay); details: 60 min pre-incubation, 1 mM ATP; for % inhibition @ 10 μM / inhibition at 10 µM: 10 μM compound; for IC50: read-out: IC50; for inhibition at 10 µM: read-out: % inhibition @ 10 μM
Chain of CDK7/CycH/MNAT1 (P50613 whole entry): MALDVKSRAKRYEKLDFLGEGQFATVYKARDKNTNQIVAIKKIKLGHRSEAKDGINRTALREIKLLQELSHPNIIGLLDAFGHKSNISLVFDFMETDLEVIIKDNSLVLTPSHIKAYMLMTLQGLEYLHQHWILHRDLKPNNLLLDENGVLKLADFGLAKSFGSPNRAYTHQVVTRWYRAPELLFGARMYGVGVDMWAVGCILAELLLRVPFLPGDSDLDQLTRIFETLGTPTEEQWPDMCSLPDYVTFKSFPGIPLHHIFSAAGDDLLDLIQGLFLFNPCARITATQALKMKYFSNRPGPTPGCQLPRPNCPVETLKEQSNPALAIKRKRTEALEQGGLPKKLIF
Chain of CDK7/CycH/MNAT1 (P51946 whole entry partner): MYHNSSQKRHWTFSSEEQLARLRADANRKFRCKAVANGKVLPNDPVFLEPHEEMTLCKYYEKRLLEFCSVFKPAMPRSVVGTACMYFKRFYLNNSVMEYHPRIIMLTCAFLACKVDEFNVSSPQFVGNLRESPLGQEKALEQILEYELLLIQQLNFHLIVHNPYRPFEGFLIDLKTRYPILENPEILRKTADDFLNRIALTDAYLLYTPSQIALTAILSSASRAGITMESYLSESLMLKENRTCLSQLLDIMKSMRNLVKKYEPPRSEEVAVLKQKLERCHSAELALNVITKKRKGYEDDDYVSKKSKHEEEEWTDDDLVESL
Chain of CDK7/CycH/MNAT1 (P51948 whole entry partner): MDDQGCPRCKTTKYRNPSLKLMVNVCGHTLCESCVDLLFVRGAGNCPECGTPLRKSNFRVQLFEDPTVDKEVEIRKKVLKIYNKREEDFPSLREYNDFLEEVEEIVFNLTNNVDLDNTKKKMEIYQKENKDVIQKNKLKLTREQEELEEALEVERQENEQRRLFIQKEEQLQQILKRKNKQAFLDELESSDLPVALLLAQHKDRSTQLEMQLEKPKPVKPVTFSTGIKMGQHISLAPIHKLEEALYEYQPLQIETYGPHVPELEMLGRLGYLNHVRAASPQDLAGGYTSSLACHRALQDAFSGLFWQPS
Method in brief: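 CDK7/CycH/MNAT1 (5 nM) was preincubated with compound for 60 min at room temperature, then reacted for 60 min with 100 nM ULight-MBP and 1 mM ATP in 1% DMSO. Irreversibility was probed with 20, 60 and 180 min preincubations.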

[2] = tested on: RNA polymerase II CTD phosphorylation (MDA-MB-231/NCI-H358 cells); test: Inhibition of RNA polymerase II CTD phosphorylation in cell western assay; format: cell-based; details: 4 hours incubation, phospho RNA Pol II Ser-5 or Ser-2
Experimental: 25000 cells (MDA-MB-231/NCI-H358) were seeded in 96 well black clear bottom plate incubated for overnight before addition of selected compound. 3 fold dilutions of selected compound diluted in DMSO starting from 10 μM, added to cells and incubated for 4 hours at 37° C., 5% CO2 incubator. Cells were washed once with 100 μl of phosphate buffered saline (sigma #P3813), then fixed with 100 μl/well of 4% Para formaldehyde for 60 min at room temperature, in dark. The cells were washed 3 times with 100 μl of wash buffer (PBS with 0.1% Triton-X-100), later blocked for 2 hours at room temperature in blocking buffer (5% BSA in PBST). Cells were stained overnight at 4° C. with Phospho RNA Pol II (S5) (Millipore #04-1572, Abcam #5131) or Phospho RNA Pol II (Ser-2), antibody (Bethyl labs #A300-654-A) in blocking buffer. Post incubation cells were washed with Delifia wash buffer (Perkin Elmer #4010-0010). Cells were treated with LANCE secondary antibodies (LANCE® Eu-W1024 perkin elmer #AD-0076 for phospho Ser-5 CTD RNA pol-II and Delfia Eu-N1 anti rabbit IgG Perkin elmer #AD0106 for phospho Ser-2 CTD RNA pol-II) for 2 hours in assay buffer (Perkin Elmer #1244-111), Cells were washed 3 times with Delfia wash buffer post incubation, Enhancement solution (Perkin Elmer #1244-105) added and incubated for 20 mins. Europium readings were taken in Victor-3 instrument. Cell normalization was done using Hoechst dye (0.5 μg/ml).
Selected compounds were screened in the above mentioned assay procedure. The EC50 values are summarised in the below table; wherein group “A” refers to an EC50 value of less than or equal to 1 μM, group “B” refers to EC50 value in range of 1 to 10 μM and group “C” refers to EC50 value of greater than 10 μM.

| % inhibition @ 10 μM [1] | IC50 [1] | EC50 [2] | inhibition at 10 µM [1] | Compound |
| --- | --- | --- | --- | --- |
| 93% | 300 to 1000 nM | 1000 to 10000 nM |  | C=CC(=O)N1CCC(C(=O)Nc2cccc(CNc3nc(NC4CCCC(O)C4)nc4c(C(C)C)cnn34)c2)C1 (single isomer, unassigned) [Compound 13, 1-acryloyl-N-(3-(((2-((3-hydroxycyclohexyl)amino)-8-isopropylpyrazolo[1,5-a][1,3,5]triazin-4-yl)amino)methyl)phenyl)pyrrolidine-3-carboxamide] |
|  | < 300 nM | 1000 to 10000 nM | 98% | C=CC(=O)N1CCC(C(=O)Nc2cccc(CNc3nc(OC4CCN(C)CC4)nc4c(C(C)C)cnn34)c2)C1 (single isomer, unassigned) [Compound 109, 1-acryloyl-N-(3-(((8-isopropyl-2-((1-methylpiperidin-4-yl)oxy)pyrazolo[1,5-a][1,3,5]triazin-4-yl)amino)methyl)phenyl)pyrrolidine-3-carboxamide] |
| 99% | < 300 nM | 1000 to 10000 nM |  | C=CC(=O)N1CCC(C(=O)Nc2cccc(CNc3nc(OC4CCN(C)CC4)nc4c(C(C)C)cnn34)c2)C1 (single isomer, unassigned) [Compound 110, 1-acryloyl-N-(3-(((8-isopropyl-2-((1-methylpiperidin-4-yl)oxy)pyrazolo[1,5-a][1,3,5]triazin-4-yl)amino)methyl)phenyl)pyrrolidine-3-carboxamide] |
|  | 300 to 1000 nM | ≤ 1000 nM | 88% | C=CC(=O)N1CCCC(C(=O)Nc2cccc(CNc3nc(NC4CCOCC4)nc4c(C(C)C)cnn34)c2)C1 (stereo not drawn) [Compound 1, 1-acryloyl-N-(3-(((8-isopropyl-2-((tetrahydro-2H-pyran-4-yl)amino)pyrazolo[1,5-a][1,3,5]triazin-4-yl)amino)methyl)phenyl)piperidine-3-carboxamide] |
|  | < 300 nM | ≤ 1000 nM | 98% | C=CC(=O)N1CCC1C(=O)Nc1cccc(CNc2nc(NC3CCOCC3)nc3c(C(C)C)cnn23)c1 (stereo not drawn) [Compound 2, 1-acryloyl-N-(3-(((8-isopropyl-2-((tetrahydro-2H-pyran-4-yl)amino)pyrazolo[1,5-a][1,3,5]triazin-4-yl)amino)methyl)phenyl)azetidine-2-carboxamide] |
|  | < 300 nM | ≤ 1000 nM | 96% | C=CC(=O)N1CCCC1C(=O)Nc1cccc(CNc2nc(NC3CCOCC3)nc3c(C(C)C)cnn23)c1 (stereo not drawn) [Compound 3, 1-acryloyl-N-(3-(((8-isopropyl-2-((tetrahydro-2H-pyran-4-yl)amino)pyrazolo[1,5-a][1,3,5]triazin-4-yl)amino)methyl)phenyl)pyrrolidine-2-carboxamide] |
|  | < 300 nM | ≤ 1000 nM | 93% | C=CC(=O)N1CCC(C(=O)Nc2cccc(CNc3nc(NC4CCOCC4)nc4c(C(C)C)cnn34)c2)C1 (stereo not drawn) [Compound 4, 1-acryloyl-N-(3-(((8-isopropyl-2-((tetrahydro-2H-pyran-4-yl)amino)pyrazolo[1,5-a][1,3,5]triazin-4-yl)amino)methyl)phenyl)pyrrolidine-3-carboxamide] |
|  | < 300 nM | ≤ 1000 nM | 96% | C=CC(=O)N1CCCC(C(=O)Nc2cccc(CNc3nc(NC4CCN(C)CC4)nc4c(C(C)C)cnn34)c2)C1 (stereo not drawn) [Compound 8, 1-acryloyl-N-(3-(((8-isopropyl-2-((1-methylpiperidin-4-yl)amino)pyrazolo[1,5-a][1,3,5]triazin-4-yl)amino)methyl)phenyl)piperidine-3-carboxamide] |
|  | < 300 nM | 1000 to 10000 nM | 97% | C=CC(=O)N1CCC(C(=O)Nc2cccc(CNc3nc(N[C@@H]4CCNC[C@H]4F)nc4c(C(C)C)cnn34)c2)C1 (stereo partly drawn) [Compound 14, 1-acryloyl-N-(3-(((2-(((3R,4R)-3-fluoropiperidin-4-yl)amino)-8-isopropylpyrazolo[1,5-a][1,3,5]triazin-4-yl)amino)methyl)phenyl)pyrrolidine-3-carboxamide] |
|  | < 300 nM | > 10000 nM | 98% | C=CC(=O)N1CCC(C(=O)Nc2cccc(CNc3nc(NC4CCCC(N)C4)nc4c(C(C)C)cnn34)c2)C1 (stereo not drawn) [Compound 15, 1-acryloyl-N-(3-(((2-((3-aminocyclohexyl)amino)-8-isopropylpyrazolo[1,5-a][1,3,5]triazin-4-yl)amino)methyl)phenyl)pyrrolidine-3-carboxamide] |
|  | < 300 nM | ≤ 1000 nM | 101% | C=CC(=O)N1CC(C(=O)Nc2cccc(CNc3nc(NC4CCOCC4)nc4c(C(C)C)cnn34)c2)C1 [Compound 18, 1-acryloyl-N-(3-(((8-isopropyl-2-((tetrahydro-2H-pyran-4-yl)amino)pyrazolo[1,5-a][1,3,5]triazin-4-yl)amino)methyl)phenyl)azetidine-3-carboxamide] |
|  | < 300 nM | ≤ 1000 nM | 100% | C=CC(=O)N1CC[C@H]1C(=O)Nc1cccc(CNc2nc(NC3CCOCC3)nc3c(C(C)C)cnn23)c1 [Compound 20, (S)-1-acryloyl-N-(3-(((8-isopropyl-2-((tetrahydro-2H-pyran-4-yl)amino)pyrazolo[1,5-a][1,3,5]triazin-4-yl)amino)methyl)phenyl)azetidine-2-carboxamide] |
|  | < 300 nM | ≤ 1000 nM | 96% | C=CC(=O)N1CCCCC1C(=O)Nc1cccc(CNc2nc(NC3CCOCC3)nc3c(C(C)C)cnn23)c1 (stereo not drawn) [Compound 21, 1-acryloyl-N-(3-(((8-isopropyl-2-((tetrahydro-2H-pyran-4-yl)amino)pyrazolo[1,5-a][1,3,5]triazin-4-yl)amino)methyl)phenyl)piperidine-2-carboxamide] |
|  | < 300 nM | ≤ 1000 nM | 98% | C=CC(=O)N1CCOCC1C(=O)Nc1cccc(CNc2nc(NC3CCOCC3)nc3c(C(C)C)cnn23)c1 (stereo not drawn) [Compound 24, 4-acryloyl-N-(3-(((8-isopropyl-2-((tetrahydro-2H-pyran-4-yl)amino)pyrazolo[1,5-a][1,3,5]triazin-4-yl)amino)methyl)phenyl)morpholine-3-carboxamide] |
|  | < 300 nM | 1000 to 10000 nM | 91% | C=CC(=O)N1CCC(C(=O)Nc2ccc(F)c(CNc3nc(NC4CCOCC4)nc4c(C(C)C)cnn34)c2)C1 (stereo not drawn) [Compound 32, 1-acryloyl-N-(4-fluoro-3-(((8-isopropyl-2-((tetrahydro-2H-pyran-4-yl)amino)pyrazolo[1,5-a][1,3,5]triazin-4-yl)amino)methyl)phenyl)pyrrolidine-3-carboxamide] |
|  | < 300 nM | 1000 to 10000 nM | 95% | C=CC(=O)N[C@H]1CC[C@@H](C(=O)Nc2cccc(CNc3nc(NC4CCOCC4)nc4c(C(C)C)cnn34)c2F)CC1 [Compound 38, (1,4-cis)-4-acrylamido-N-(2-fluoro-3-(((8-isopropyl-2-((tetrahydro-2H-pyran-4-yl)amino)pyrazolo[1,5-a][1,3,5]triazin-4-yl)amino)methyl)phenyl)cyclohexane-1-carboxamide] |
|  | < 300 nM | 1000 to 10000 nM | 98% | CC(C)c1cnn2c(NCc3cccc(NC(=O)C4CCN(C(=O)/C=C/CN(C)C)C4)c3)nc(NC3CCOCC3)nc12 (stereo not drawn) [Compound 69, (E)-1-(4-(dimethylamino)but-2-enoyl)-N-(3-(((8-isopropyl-2-((tetrahydro-2H-pyran-4-yl)amino)pyrazolo[1,5-a][1,3,5]triazin-4-yl)amino)methyl)phenyl)pyrrolidine-3-carboxamide] |
|  | < 300 nM | ≤ 1000 nM | 100% | C=CS(=O)(=O)N1CCCCC1C(=O)Nc1cccc(CNc2nc(NC3CCOCC3)nc3c(C(C)C)cnn23)c1 (stereo not drawn) [Compound 78, N-(3-(((8-isopropyl-2-((tetrahydro-2H-pyran-4-yl)amino)pyrazolo [1,5-a][1,3,5]triazin-4-yl)amino)methyl)phenyl)-1-(vinylsulfonyl)piperidine-2-carboxamide] |
|  | < 300 nM | ≤ 1000 nM | 96% | C=CC(=O)NC1(C(=O)Nc2cccc(CNc3nc(NC4CCOCC4)nc4c(C(C)C)cnn34)c2)CC1 [Compound 83, 1-acrylamido-N-(3-(((8-isopropyl-2-((tetrahydro-2H-pyran-4-yl)amino)pyrazolo[1,5-a][1,3,5]triazin-4-yl)amino)methyl)phenyl)cyclopropane-1-carboxamide] |
